Results on one compound are retold here after patent US9452122B2, “Composition for improving skin conditions, containing extracellular domain of human bone morphogenetic protein receptor 1a as active ingredient” (JOINT CENTER FOR BIOSCIENCES, priority 2011, dated 2016).

The assay has as its system wrinkles induced by UV radiation in SKH-1 nude mice. Nature of the assay: Wrinkle improvement effect of thioredoxin-human BMPR1a ECD in UV-irradiated nude mice (Example 5). The assay is classed as in vivo. As to conditions: UV 3 times/week for 11 weeks, 300 μl sample 5 times/week (proteins 1 μM, retinoic acid 0.01%). Here is the method:
SKH-1 nude mice (female, 4 weeks old, DooYeol Biotech, Korea) were acclimated for about 2 weeks under conditions of a temperature of 24±2° C. and a humidity of 50±10% in a 12-hr light/12-hr dark cycle, and then divided into six groups for the experiment.
The protein group and control group were respectively treated with […] corresponding samples every week five times. For UV treatment, the back of each mouse was uniformly coated with the previously prepared sample one hour before UV radiation by using Art brush No. 3 (Hwahong, Incheon Korea).
VLX-3W stimulator(Vilber Lourmat, Marne la Vallee, France) was used for a UV radiation equipment. UV radiation was conducted three times every week for a total of 11 weeks: 40 mJ/cm^2 for 1st to 2nd weeks; 50 mJ/cm^2 for 3rd to 4th weeks; 60 mJ/cm^2 for 5th to 9th weeks; and 70 mJ/cm^2 for 10th to 11th weeks.
As the result of integration of the evaluations on respective items through observation by the naked eye, it was verified that skin wrinkles were improved by about 38% in the group coated with retinoic acid, about 42% in the group treated with Lipo-BMPR1a ECD, and about 59% in the group treated with Lipo-thioredoxin-BMPR1a ECD.

Consider `CC1=C(/C=C/C(C)=C/C=C/C(C)=C/C(=O)O)C(C)(C)CCC1` [retinoic acid], for which the “skin wrinkles improved (wrinkle scores of 10 grades from photographs)” value is “about 38%”.
